Positions count from the first letter of the chain named.
Legend:
[1] = molecular target: T1, 5-hydroxytryptamine receptor 1A (Homo sapiens, UniProt P08908); assay: [3H]8-OH-DPAT Binding Assay; details: pH 7.4; 27 °C
T1 sequence (P08908 whole entry): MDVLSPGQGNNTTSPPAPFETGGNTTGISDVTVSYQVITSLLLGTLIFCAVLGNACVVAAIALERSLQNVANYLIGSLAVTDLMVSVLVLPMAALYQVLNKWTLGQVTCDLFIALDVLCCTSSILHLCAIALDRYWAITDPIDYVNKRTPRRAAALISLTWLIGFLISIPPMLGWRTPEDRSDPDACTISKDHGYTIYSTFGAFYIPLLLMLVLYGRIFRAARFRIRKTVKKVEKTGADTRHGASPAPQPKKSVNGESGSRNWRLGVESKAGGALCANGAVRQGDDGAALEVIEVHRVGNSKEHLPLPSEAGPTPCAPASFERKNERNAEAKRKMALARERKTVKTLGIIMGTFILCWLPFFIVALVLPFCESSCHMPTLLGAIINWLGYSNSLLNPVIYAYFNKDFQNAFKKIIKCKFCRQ
Protocol: For the binding assay, aliquots of receptor membranes, 0.25 nM [3H]8-OH-DPAT (8-hydroxy-2-(di-N-propylamino)tetralin, 154.3 Ci/mM; New England Nuclear, Boston, MA) and appropriate concentrations of test compounds were added to 0.25 mL of 50 mM Tris-HCl (pH 7.4) buffer containing 10 mM MgSO4, 0.5 mM ethylenediaminetetraacetic acid (EDTA), and 0.1% ascorbic acid. Incubations were carried out for 60 min at 27 °C, and these were terminated by rapid filtration using a MicroBeta FilterMate-96 harvester (PerkinElmer) through a Filtermat A glass fiber filter presoaked in 0.3% polyethylenimine (PEI). The filter was washed with ice-cold 50 mM Tris-HCl buffer solution (pH 7.4), and was then covered with MeltiLex, sealed in a sample bag, and dried in an oven.

[2] = molecular target: 5-hydroxytryptamine receptor 2A (Homo sapiens, UniProt P28223); assay: [3H]Ketanserin Binding Assay; details: pH 7.4
Sequence of 5-hydroxytryptamine receptor 2A (P28223 whole entry): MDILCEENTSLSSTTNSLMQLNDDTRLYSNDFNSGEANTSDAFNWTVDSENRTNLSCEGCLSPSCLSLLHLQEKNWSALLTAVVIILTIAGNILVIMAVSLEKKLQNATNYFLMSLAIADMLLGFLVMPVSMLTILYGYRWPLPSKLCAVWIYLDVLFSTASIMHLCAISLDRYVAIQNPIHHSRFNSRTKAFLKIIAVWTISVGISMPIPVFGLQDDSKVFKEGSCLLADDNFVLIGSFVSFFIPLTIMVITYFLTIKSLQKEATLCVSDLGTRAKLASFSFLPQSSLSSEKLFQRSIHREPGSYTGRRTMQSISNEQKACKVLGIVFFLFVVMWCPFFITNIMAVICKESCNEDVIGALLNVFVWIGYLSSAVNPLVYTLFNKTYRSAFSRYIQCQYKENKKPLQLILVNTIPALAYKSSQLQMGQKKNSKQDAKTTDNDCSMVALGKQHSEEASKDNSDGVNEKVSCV
Protocol: For serotonin 5-HT2A binding, an aliquot of frozen membrane from a CHO-K1 cell line expressing the human recombinant 5-HT2A receptor (PerkinElmer) and [3H]ketanserin (1 nM; PerkinElmer) were used in the presence of mianserin (20 μM) as nonspecific. The reaction mixture was incubated for 60 min at 27°C using 50 mM Tris-HCl (pH 7.4) buffer containin 4 mM CaCl2 and 0.1% ascorbic acid, and harvested through a Filtermat A glass fiber filter presoaked in 0.5% PEI.

[3] = molecular target: T2, 5-hydroxytryptamine receptor 2C (Homo sapiens, UniProt P28335); assay: [3H]Mesulergine Binding Assay; details: pH 7.4
T2 sequence (P28335 whole entry): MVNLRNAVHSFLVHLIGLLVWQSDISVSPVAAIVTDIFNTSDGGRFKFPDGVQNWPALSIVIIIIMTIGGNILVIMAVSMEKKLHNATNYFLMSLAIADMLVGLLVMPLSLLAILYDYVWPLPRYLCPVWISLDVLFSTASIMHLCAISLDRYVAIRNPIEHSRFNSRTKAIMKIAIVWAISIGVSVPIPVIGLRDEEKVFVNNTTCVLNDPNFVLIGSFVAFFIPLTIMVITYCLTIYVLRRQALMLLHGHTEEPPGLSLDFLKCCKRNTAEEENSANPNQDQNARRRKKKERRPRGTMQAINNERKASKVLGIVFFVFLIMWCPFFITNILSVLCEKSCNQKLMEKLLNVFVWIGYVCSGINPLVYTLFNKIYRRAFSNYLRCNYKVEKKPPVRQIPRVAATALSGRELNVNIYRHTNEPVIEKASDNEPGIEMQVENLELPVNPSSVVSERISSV
Protocol: (§1) Frozen membranes from a stable CHO-K1 cell line expressing the human recombinant 5-HT2C receptor (PerkinElmer) were used. For the binding assay, [3H]mesulergine (1 nM; Amersham Biosciences, Buckinghamshire, UK), receptor membrane, and test compounds were added into 50 mM Tris-HCl (pH 7.4) buffer containing 0.1% ascorbic acid and 4 mM CaCl2. Nonspecific binding was determined using 100 μM mianserin. The incubations were performed for 60 min at 27°C, and these were terminated by rapid filtration through a Filtermat A glass fiber filter presoaked in 0.5% PEI.

[4] = molecular target: 5-hydroxytryptamine receptor 6 (Homo sapiens, UniProt P50406); assay: [3H] LSD Binding Assay; details: pH 7.4; 27 °C
Sequence of 5-hydroxytryptamine receptor 6 (P50406 whole entry): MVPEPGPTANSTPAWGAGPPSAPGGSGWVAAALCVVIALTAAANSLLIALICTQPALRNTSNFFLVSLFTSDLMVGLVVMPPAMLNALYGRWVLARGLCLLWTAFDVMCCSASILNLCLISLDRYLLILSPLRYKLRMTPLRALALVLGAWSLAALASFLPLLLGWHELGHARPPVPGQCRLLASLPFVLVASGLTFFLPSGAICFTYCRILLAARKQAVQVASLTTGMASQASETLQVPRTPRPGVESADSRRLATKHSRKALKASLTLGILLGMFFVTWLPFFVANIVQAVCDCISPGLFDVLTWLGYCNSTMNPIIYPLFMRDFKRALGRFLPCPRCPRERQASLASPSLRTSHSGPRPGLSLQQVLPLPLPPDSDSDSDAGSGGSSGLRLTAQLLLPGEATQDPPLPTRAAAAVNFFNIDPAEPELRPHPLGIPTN
Protocol: (§2) For receptor binding assays, human 5-HT6 and 5-HT7 serotonin receptors expressed in CHO-K1 cells (PerkinElmer) were used. For 5-HT6 receptor binding, frozen membrane, 1 nM [3H]LSD (lysergic acid diethylamide; PerkinElmer), and appropriate concentrations of test compounds were added to 0.25 mL of 50 mM Tris-HCl (pH 7.4) buffer containing 0.1% ascorbic acid and 4 mM CaCl2. Nonspecific binding was determined using 10 μM methiothepin. The incubations were performed for 60 min at 27 °C, and these were terminated by rapid filtration through a Filtermat A glassfiber filter presoaked in 0.5% PEI. For the 5-HT7 receptor binding assay, cell membrane, 3 nM [3H]LSD, and appropriate concentrations of test compounds were added to 0.25 mL of 50 mM Tris-HCl (pH 7.4) buffer containing 10 mM MgSO4 and 0.5 mM EDTA. The mixture was incubated for 120 min at 27 °C, and the reaction was terminated by rapid filtration through a Filtermat A glass fiber filter presoaked in 0.3% PEI. Nonspecific binding was determined using 10 μM methiothepin.

[5] = molecular target: 5-hydroxytryptamine receptor 7 (Homo sapiens, UniProt P34969); assay: [3H] LSD Binding Assay; details: pH 7.4; 27 °C
Sequence of 5-hydroxytryptamine receptor 7 (P34969 whole entry): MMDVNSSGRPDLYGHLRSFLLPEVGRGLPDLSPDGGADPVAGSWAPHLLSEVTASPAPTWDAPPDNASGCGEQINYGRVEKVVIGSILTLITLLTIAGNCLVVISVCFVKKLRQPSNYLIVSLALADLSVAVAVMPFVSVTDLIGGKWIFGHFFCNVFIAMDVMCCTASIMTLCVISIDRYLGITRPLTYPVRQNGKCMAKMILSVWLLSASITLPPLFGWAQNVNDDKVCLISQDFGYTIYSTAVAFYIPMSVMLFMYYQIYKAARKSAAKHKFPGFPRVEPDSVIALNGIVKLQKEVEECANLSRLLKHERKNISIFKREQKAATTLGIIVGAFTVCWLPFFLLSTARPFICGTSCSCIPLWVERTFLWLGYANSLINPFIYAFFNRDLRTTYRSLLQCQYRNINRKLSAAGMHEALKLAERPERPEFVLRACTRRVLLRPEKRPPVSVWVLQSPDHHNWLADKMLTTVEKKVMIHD
Protocol: as §2

[6] = molecular target: T3, 5-hydroxytryptamine receptor 2C (Homo sapiens, UniProt P28335); assay: [3H]Mesulergine Binding Assay; details: pH 7.4; remark: listed apart in the source
T3 sequence (P28335 whole entry): T2 sequence (P28335 whole entry) with S23C
Protocol: as §1

IC50 [1] | IC50 [2] | IC50 [3] | IC50 [4] | IC50 [5] | IC50 [6] | SMILES
7.6 µM | > 10 µM | 2.5 µM | > 10 µM | > 10 µM |  | COc1cc(/C=C/C(=O)O)cc(OC)c1OC [3,4,5-Trimethoxycinnamic acid (TMCA)]
5.9 µM | > 10 µM |  | > 10 µM | > 10 µM | > 10 µM | C=CCNC(=O)/C=C/c1cc(OC)c(OC)c(OC)c1 [(E)-N-Allyl-3-(3,4,5-trimethoxyphenyl) acrylamide (1b)]
4.9 µM | > 10 µM |  | > 10 µM | > 10 µM | > 10 µM | CCCCNC(=O)/C=C/c1cc(OC)c(OC)c(OC)c1 [(E)-N-Butyl-3-(3,4,5-trimethoxyphenyl) acrylamide (1c)]
2.1 µM | 6.8 µM | 4.5 µM | 5.6 µM | 6.7 µM |  | CCCCCCCCCCNC(=O)/C=C/c1cc(OC)c(OC)c(OC)c1 [(E)-N-Decyl-3-(3,4,5-trimethoxyphenyl) acrylamide (1f)]
3.8 µM | > 10 µM |  | > 10 µM | > 10 µM | > 10 µM | CCCCCCNC(=O)/C=C/c1cc(OC)c(OC)c(OC)c1 [(E)-N-Hexyl-3-(3,4,5-trimethoxyphenyl) acrylamide (1d)]
5.6 µM | > 10 µM |  | > 10 µM | > 10 µM | > 10 µM | CNC(=O)/C=C/c1cc(OC)c(OC)c(OC)c1 [(E)-N-Methyl-3-(3,4,5-trimethoxyphenyl) acrylamide (1a)]
1.2 µM | > 10 µM | 8.8 µM | > 10 µM | > 10 µM |  | CCCCCCCCNC(=O)/C=C/c1cc(OC)c(OC)c(OC)c1 [(E)-N-Octyl-3-(3,4,5-trimethoxyphenyl) acrylamide (1e)]
